“Also recorded” adds a separate entry of the source.
Experiments:
[1] = man, recommended dose of 125-250 mg bid; cited from earlier work
[2] = Treatment of ZD4054 induced headache in subjects of the clinical study (zolmitriptan, standard analgesics); assay type: in vivo, man; conditions: for effect of standard analgesic therapy on ZD4054 induced headaches: subjects with ZD4054 induced headache
Method: Based on citations by Carducci (Carducci, 2002) a number of “standard analgesic therapies” were tried, including paracetamol, ibuprofen and codeine to treat the ZD4054 induced headaches.
(§1) A study was undertaken to assess the safety and tolerability of multiple doses of ZD4054 in healthy young volunteers at dose levels of 100 mg, 50 mg and 25 mg daily.
(§2) At the 100 mg dose level 16 volunteers participated (12 active and 4 placebo). They received a 100 mg ZD4054 or placebo single dose and one week later commenced daily dosing. Dosing was stopped within 3-5 days of continuous dosing in the majority of ZD4054 treated subjects due to headache. Of the 12 subjects receiving ZD4054, 10 were additionally given zolmitriptan (2.5 mg tablets) at some stage (in addition to paracetamol and in some cases ibuprofen).
(§3) Note: all subjects received paracetamol (1 g every 4 hours for the first 16 hours post the first dose of ZD4054) on the first day of multiple dosing. Analgesics were given as required.
An explanation of CTC grades which stands for Common Toxicity Criteria, can be found in a document from the National Institute of Health, Version 2.0, DCTD, NCI, NIH, DHHS March 1998.

[3] = Clinical study of safety and tolerability of multiple doses of ZD4054 in healthy young volunteers; assay type: in vivo, man
Method: as §1, §2, §3

[4] = cancer patients, doses of 20 mg and above; cited from earlier work

## COc1ccccc1Oc1c(NS(=O)(=O)c2ccc(C(C)(C)C)cc2)nc(-c2ncccn2)nc1OCCO [Bosentan]
[1]
  subjects with induced headaches: 22%

## COc1ccc2c3c1O[C@H]1[C@@H](O)C=C[C@H]4[C@@H](C2)N(C)CC[C@@]341 [codeine]
[2]
  effect of standard analgesic therapy on ZD4054 induced headaches: several subjects still reported persistent headache

## COc1nc(C)cnc1NS(=O)(=O)c1cccnc1-c1ccc(-c2nnco2)cc1 [ZD4054, N-(3-methoxy-5-methylpyrazin-2-yl)-2-(4-[1,3,4-oxadiazol-2-yl]phenyl)pyridine-3-sulphonamide]
[3]; 100 mg daily, majority of ZD4054 treated subjects
  time of continuous dosing until dosing was stopped due to headache: 3 to 5 days
[3]; clinical testing in man
  induction of headache in man: induces headaches in man

## CC(=O)Nc1ccc(O)cc1 [paracetamol]
[2]; Subject 7, CTC grade 2 headache, second day of multiple dosing
  improvement of headache: little improvement
[2]; Subject 10, second day, increased from CTC grade 1
  headache grade despite treatment: 3 CTC grade
[2]
  effect of standard analgesic therapy on ZD4054 induced headaches: several subjects still reported persistent headache

## CN(C)CCc1c[nH]c2ccc(C[C@H]3COC(=O)N3)cc12 [zolmitriptan]
[2]; Subject 7, from CTC grade 2 on second day of multiple dosing, 2.5 mg plus 2.5 mg 50 mins later, 1-1.5 hours later
  headache grade after treatment: 1 CTC grade
[2]; Subject 10, day 3, from CTC grade 3, 2.5 mg plus 2.5 mg 50 mins later, 2.5 h later
  headache grade after treatment: 1 CTC grade
[2]; Subject 10, second day, from CTC grade 3, 2.5 mg
  headache grade after treatment: 2 CTC grade
[2]; of 10 subjects given zolmitriptan 2.5 mg tablets, ZD4054 100 mg
  patients noting at least at one stage that their headache was alleviated: Seven
[2]; subjects in which standard analgesic therapy had failed, 2.5-5 mg orally
  effect on intensity/severity of ZD4054 induced headache: effective in reducing the intensity of ZD4054 induced headaches in some subjects; also recorded: effective in reducing the severity of headache

## CC(C)Cc1ccc(C(C)C(=O)O)cc1 (centres unmarked) [ibuprofen]
[2]
  effect of standard analgesic therapy on ZD4054 induced headaches: several subjects still reported persistent headache

## CCCCN(CCCC)C(=O)CN1C[C@H](c2ccc3c(c2)OCO3)[C@@H](C(=O)O)[C@@H]1c1ccc(OC)cc1 [Atrasentan]
[4]
  incidence of headache: 50-100%

From patent US20060009512A1, “5-ht 1b/1d receptor agonists for the treatment of headache resulting from administering an endothelin receptor antagonist” (priority 2002, published 2006)
